This is an account of results in US20080194970A1 (priority 2005, published 2008).

For series [1] the following is noted: cited from earlier work.
Series [2] deals with normal prostate cells. Kind of series: topical labeling of prostate cells during surgery, imaged by fibered confocal fluorescence microscopy. Particulars: rat during a surgical procedure. It is filed as in vivo. The text has this:
The marker bar indicates 30 microns.
The imaging equipment selected for use in the present invention was a Cell-vizio (purchased from Mauna Kea Technologies), an ultra-high resolution molecular imaging system that employs fibered confocal fluorescence microscopy technology. This system was specifically designed to visualize cellular structures and quantify molecular events in vivo and is composed of an autonomous Laser Scanning Unit, a range of fibered objectives made of tens of thousands of optical fibers, and a dedicated image processing and analysis software package. The system is capable of capturing images at a rate of 12 frames per second in living anesthetized animals. These images have a lateral resolution of the order of a micron, an axial resolution of 15 to 20 μm, a field of view up to 600 μm×500 μm, and can be obtained at depths up to 80 μm. The fibered probes have diameters ranging from 300 μm to 1.8 mm, allowing for access to the narrow spaces posterior to the prostate where the cavernous nerves are located.

On to Alexa Fluor 488, for which the water solubility entry in series [1] was “water solubility, with no organic co-solvents required in labeling reactions”. Moreover, the photostability entry in series [1] (compared with fluorescein) is recorded as “much greater photostability than fluorescein”.

For the substance acriflavine, the “in vivo labeling of normal prostate cells (FIG. 3)” value in series [2] is given as “normal prostate cells labeled”.
